Results: patent US20250346593A1, “IMIDAZO(1,2-1)PYRIDINE DERIVATIVES AS RIPK2 INHIBITORS” (Interline Therapeutics, Inc., priority 2022, published 2025)
Like-named read-outs stand apart in the source and are kept apart here.

Columns and labels:
[1] = biological target: GST-RIPK2 fusion protein (human RIPK2 amino acids 1-310) (Homo sapiens (Human), UniProt O43353); test: RIPK2 binding competition assay (TR-FRET, Tracer 199)
[2] = test system: NF-κB pathway (SEAP) in THP1-Dual cells; test: THP-1 Dual cell SEAP assay (L18-MDP stimulated); type: cell-based; conditions: Homo sapiens, THP1-Dual, read-out: NFkB THP1 IC50
[3] = read-out: RIPK2 IC50, RIPK2 binding competition assay

Sequence of GST-RIPK2 fusion protein (human RIPK2 amino acids 1-310) (O43353 1-310): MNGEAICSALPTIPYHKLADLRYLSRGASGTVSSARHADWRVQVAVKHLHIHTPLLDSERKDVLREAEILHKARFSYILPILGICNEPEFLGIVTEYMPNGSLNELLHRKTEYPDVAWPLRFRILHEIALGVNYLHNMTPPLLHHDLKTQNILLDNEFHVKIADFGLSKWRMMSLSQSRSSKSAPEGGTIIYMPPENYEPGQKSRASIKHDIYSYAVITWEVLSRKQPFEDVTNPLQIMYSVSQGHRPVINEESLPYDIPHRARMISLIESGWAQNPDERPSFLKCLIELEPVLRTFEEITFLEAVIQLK

Compound	IC50 [1] [nM]	IC50 [2] [nM]	IC50 [1, 3] [nM]
CCCS(=O)(=O)Nc1cc(-c2cnc3cc(OC)c(S(=O)(=O)C(C)(C)C)cn23)ccc1F [Example 291, N-(5-(6-(tert-butylsulfonyl)-7-methoxyimidazo[1,2-a]pyridin-3-yl)-2-fluorophenyl)propane-1-sulfonamide]	2.5 to 20	250 to 1000	–
CCCS(=O)(=O)Nc1cc(F)cc(-c2cnc3cc(OC)c(S(=O)(=O)C(C)(C)C)cn23)c1F [Example 292, N-(3-(6-(tert-butylsulfonyl)-7-methoxyimidazo[1,2-a]pyridin-3-yl)-2,5-difluorophenyl)propane-1-sulfonamide]	2.5 to 20	> 1000	–
CCCS(=O)(=O)Nc1ccc(-c2cnc3cc(OC)c(S(=O)(=O)C(C)(C)C)cn23)cc1OC(F)F [Example 293, N-(4-(6-(tert-butylsulfonyl)-7-methoxyimidazo[1,2-a]pyridin-3-yl)-2-(difluoromethoxy)phenyl) propane-1-sulfonamide]	–	> 1000	> 20
CCS(=O)(=O)Nc1cc(-c2cnc3cc(OC)c(S(=O)(=O)C(C)(C)C)cn23)cc(F)c1OC [Example 294, N-(5-(6-(tert-butylsulfonyl)-7-methoxyimidazo[1,2-a]pyridin-3-yl)-3-fluoro-2-methoxyphenyl)ethane-sulfonamide]	< 1	< 50	–
CCCS(=O)(=O)Nc1cc(OC(F)F)cc(-c2cnc3cc(OC)c(S(=O)(=O)C(C)(C)C)cn23)c1 [Example 295, N-(3-(6-(tert-butylsulfonyl)-7-methoxyimidazo[1,2-a]pyridin-3-yl)-5-(difluoromethoxy)phenyl) propane-1-sulfonamide]	1 to 2.5	50 to 250	–
CC(C)(C)S(=O)(=O)c1ccn2ncc(-c3cc(F)nc(NCCCO)c3)c2c1 [Example 296, 3-((4-(5-(tert-butylsulfonyl)pyrazolo [1,5-a]pyridin-3-yl)-6-fluoropyridin-2-yl)amino)propan-1-ol]	1 to 2.5	< 50	–
CC(C)(C)S(=O)(=O)c1ccn2ncc(-c3cc(N)nc(F)c3)c2c1 [Example 298, 4-(5-(tert-Butylsulfonyl)pyrazolo[1,5-a]pyridin-3-yl)-6-fluoropyridin-2-amine]	2.5 to 20	50 to 250	–
CC(C)(C)S(=O)(=O)c1ccn2ncc(-c3ccc(F)nc3N)c2c1 [Example 299, 3-(5-(tert-butylsulfonyl)pyrazolo[1,5-a]pyridin-3-yl)-6-fluoropyridin-2-amine]	> 20	> 1000	–
CC(C)(C)S(=O)(=O)c1ccn2ncc(-c3ccc(N)nc3F)c2c1 [Example 300, 5-(5-(tert-butylsulfonyl)pyrazolo[1,5-a]pyridin-3-yl)-6-fluoropyridin-2-amine]	> 20	> 1000	–
COc1cc2ncc(-c3cc(F)nc(NCC4CCNCC4)c3)n2cc1S(=O)(=O)C(C)(C)C [Example 301, 4-(6-(tert-butylsulfonyl)-7-methoxyimidazo[1,2-a]pyridin-3-yl)-6-fluoro-N-(piperidin-4-ylmethyl)pyridin-2-amine]	1 to 2.5	50 to 250	–
COc1cc(-c2cnc3cc(OC)c(S(=O)(=O)C(C)(C)C)cn23)cc(F)n1 [Example 302, 6-(tert-butylsulfonyl)-3-(2-fluoro-6-methoxypyridin-4-yl)-7-methoxyimidazo[1,2-a]pyridine]	2.5 to 20	250 to 1000	–
CCCS(=O)(=O)Nc1cc(-c2cnc3cc(OC)c(S(=O)(=O)C(C)(C)C)cn23)cc(F)n1 [Example 304, N-(4-(6-(tert-butylsulfonyl)-7-methoxyimidazo[1,2-a]pyridin-3-yl)-6-fluoropyridin-2-yl)propane-1-sulfonamide]	–	> 1000	> 20
COc1cc2ncc(-c3cc(F)c(OC)c(Br)c3)n2cc1S(=O)(=O)C(C)(C)C [Example 305, 3-(3-bromo-5-fluoro-4-methoxyphenyl)-6-(tert-butylsulfonyl)-7-methoxyimidazo[1,2-a]pyridine]	2.5 to 20	> 1000	–
